How the values were obtained:
[1] = molecular target: T1, Bile acid receptor (Homo sapiens) (UniProt Q96RI1); experiment: (§1) Agonist activity at human farnesoid-X-receptor expressed in HEK293T cells co-expressing human RXRalpha assessed as receptor activation after 20 hrs by dual luciferase reporter assay; type: cell-based; settings: HEK-293T
T1 sequence (whole entry): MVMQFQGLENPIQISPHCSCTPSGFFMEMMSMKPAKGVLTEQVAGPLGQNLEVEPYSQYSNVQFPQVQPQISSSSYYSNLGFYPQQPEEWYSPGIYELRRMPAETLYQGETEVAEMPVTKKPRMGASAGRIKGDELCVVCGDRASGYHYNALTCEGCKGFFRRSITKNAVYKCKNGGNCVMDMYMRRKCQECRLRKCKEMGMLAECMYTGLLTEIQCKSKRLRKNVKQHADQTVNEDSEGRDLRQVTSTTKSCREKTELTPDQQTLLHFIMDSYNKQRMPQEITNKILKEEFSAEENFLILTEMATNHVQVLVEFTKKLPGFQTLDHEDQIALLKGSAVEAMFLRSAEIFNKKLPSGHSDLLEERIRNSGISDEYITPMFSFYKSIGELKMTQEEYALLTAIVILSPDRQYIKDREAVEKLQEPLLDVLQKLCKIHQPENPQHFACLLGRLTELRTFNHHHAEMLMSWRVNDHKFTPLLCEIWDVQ

Bile acid receptor = molecular target: T2, Bile acid receptor (Homo sapiens, UniProt Q96RI1); experiment: as §1; type: cell-based, HEK-293T
T2 sequence (Q96RI1 whole entry): T1 sequence (whole entry)

Activity [1] | EC50 (Bile acid receptor) | Structure (SMILES)
Dose-dependent effect | 29.9 µM | CC(C)(C)OC(=O)/N=C(/NCCc1cc(NC(=O)Nc2ccncc2)no1)NC(=O)OC(C)(C)C
Dose-dependent effect | 15.4 µM | CC(C)(C)OC(=O)/N=C(\NCCCc1cc(C(=O)NCc2ccncc2)no1)NC(=O)OC(C)(C)C
